Experimental data: paper PMC12073438, “Stereoselectivity of In Vivo Processes and Bioactivity of Farrerol Enantiomers” (Molecules, 2025)
Where “and” joins values, the source holds several entries; their conditions need not be identical. Equal entries are not always repeated. Where two headings read alike, the source gives them in different places.

Test: Stereoselective pharmacokinetics in rat liver tissue
Type: in vivo, Sprague–Dawley rats
Conditions: rat liver, oral 40 mg/kg farrerol racemate; for Cmax / AUC(0–t) / AUC(0–∞): 40 mg/kg
Description: Forty-two rats were divided randomly into seven groups (6 rats per time point at 0.5, 1, 2, 4, 8, 12, and 24 h) and were orally administered farrerol racemate at a dose of 40 mg/kg. Rats from each group were euthanized, and kidney and liver tissues were subsequently obtained. After washing three times using 0.9% sodium chloride solution, the attached blood and fat tissues were removed. Afterward, 0.5 g of the precisely weighed liver and kidney tissues were added to 1 mL 0.9% sodium chloride solution and homogenized in an ice bath. Subsequently, 150 µL of supernatant was transferred into a 2.0 mL EP tube for pre-treatment, in the same way as the pretreatment of plasma samples (see Section 3.4.1).
Stereoselective chromatographic analysis of farrerol enantiomers was conducted utilizing an ACQUITY UPLC I-Class UPLC system (Waters, Milford, MA, USA), which is equipped with a quaternary pump and an autosampler. The chiral separation was carried out employing a Chiralpak OJ-RH column (250 mm × 4.6 mm, 5 μm), which was obtained from Daicel Chemical Industries (Shanghai, China). The mobile phase consisted of ACN-H2O (60:40, v/v), and the constant flow rate was 0.5 mL/min. The column temperature was set at 25 °C, and the injection volume was 10 μL.
Mass detection was conducted using a triple quadrupole mass spectrometer (Waters Co., USA) equipped with an electrospray ionization (ESI) source. The detection of enantiomers and internal standards (IS) was carried out in multiple reaction monitoring (MRM) mode utilizing negative ionization. The m/z 299→179 for enantiomers and m/z 267→252 for IS were selected as detecting ions for quantitation. The collision energies (CE) were established at 22 eV and 20 eV, respectively. The primary mass spectrometry (MS) parameters were configured as follows: capillary voltage was set to 3.5 kV, ion source temperature was maintained at 150 °C, desolvation gas flow rate was 800 L/h, and the cone voltage (CV) was adjusted to 1.3 V.
Pharmacokinetic analysis was conducted utilizing the Drug and Statistics (DAS) 2.0 software provided by the Chinese Pharmacological Society. To assess the differences in pharmacokinetic parameters, the IC50 values of the evaluated CYP enzymes and the permeability coefficients between the two farrerol enantiomers, paired sample t-tests and independent sample t-tests were performed. Statistical significance was defined as * p < 0.05 and ** p < 0.01. All results are presented as mean values ± standard deviation (SD).

Compound	Cmax (Sprague-Dawley, rat, liver, po, read-out: Cmax)	Tmax (Sprague-Dawley, read-out: Tmax)	AUC(0–t)	AUC(0–∞)	AUC0–24 of (−)-farrerol relative to (+)-farrerol	Cmax of (−)-farrerol relative to (+)-farrerol	Tmax	Cmax
Cc1c(O)c(C)c2c(c1O)C(=O)CC(c1ccc(O)cc1)O2 (single isomer, unassigned; (+)) [(+)-farrerol, 2,3-dihydro-5,7-dihydroxy-2-(4-hydroxyphenyl)-6,8-dimethyl-4-benzopyrone]	104000 ± 18000 ng/g	2 h	976.25 ± 41.60 µg·h/g	994.01 ± 40.84 µg·h/g				
Cc1c(O)c(C)c2c(c1O)C(=O)CC(c1ccc(O)cc1)O2 (single isomer, unassigned; (-)) [(−)-farrerol, 2,3-dihydro-5,7-dihydroxy-2-(4-hydroxyphenyl)-6,8-dimethyl-4-benzopyrone]			1200.9 µg/g*h and 1200.96 ± 58.92 * µg/g*h	1217.62 ± 65.03 * µg/g*h	1.23 times	1.43 times	2.00 h	148.4 ± 2.61 * µg/g
